Assay [1] has as its target T1, c-Met (baculovirus expressed human c-Met kinase domain P948-S1343) (Homo sapiens, UniProt P08581).
T1 construct: human c-Met kinase domain P948-S1343; host or cells: baculovirus expression
Description: c-Met Luciferase-Coupled Chemiluminescent Kinase assay (LCCA).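 Also: kinase activity read as percent ATP left after reaction, by luciferase-luciferin chemiluminescence, with 1 µM ATP and 1 µM poly-EY substrate, 2 h at ambient temperature, 10-point dose-response.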 Format: biochemical.
Description: Kinase activity and compound inhibition are investigated using one or more of the three assay formats described below. The ATP concentrations for each assay are selected to be close to the Michaelis-Menten constant (KM) for each individual kinase. Dose-response experiments are performed at 10 different inhibitor concentrations in a 384-well plate format. […] Typically H is close to unity. c-Met Assay
c-Met biochemical activity was assessed using a Luciferase-Coupled Chemiluminescent Kinase assay (LCCA) format as described above. Again, kinase activity was measured as the percent ATP remaining following the kinase reaction. Remaining ATP was detected by luciferase-luciferin-coupled chemiluminescence. Specifically, the reaction was initiated by mixing test compounds, 1 μM ATP, 1 μM poly-EY and 10 nM c-Met (baculovirus expressed human c-Met kinase domain P948-S1343) in a 20 uL assay buffer (20 mM Tris-HCL pH7.5, 10 mM MgCl2, 0.02% Triton X-100, 100 mM DTT, 2 mM MnCu2). The mixture is incubated at ambient temperature for 2 hours after which 20 uL luciferase-luciferin mix is added and the chemiluminescent signal read using a Wallac Victor^2 reader.

For another assay, the target named is c-Kit kinase (Homo sapiens, UniProt P10721). Kind of assay: c-Kit AlphaScreen kinase assay.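 Also: c-Kit kinase phosphorylating biotinylated poly(Glu,Tyr), ATP near its KM, 1 h reaction at ambient temperature, AlphaScreen chemiluminescence with streptavidin donor and anti-phosphotyrosine acceptor beads, 10-point inhibitor titration.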 Format: biochemical.
The target in assay [2] is T2, Flt-3 (baculovirus expressed human Flt-3 kinase domain R571-S993) (Homo sapiens, UniProt P36888).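 Also: Luciferase-coupled chemiluminescent kinase assay, activity read as percent ATP left after a 3 h reaction at room temperature, ATP near KM, 10-point dose-response.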
T2 construct: human Flt-3 kinase domain R571-S993; host or cells: baculovirus expression
T2 sequence (P36888 571-993): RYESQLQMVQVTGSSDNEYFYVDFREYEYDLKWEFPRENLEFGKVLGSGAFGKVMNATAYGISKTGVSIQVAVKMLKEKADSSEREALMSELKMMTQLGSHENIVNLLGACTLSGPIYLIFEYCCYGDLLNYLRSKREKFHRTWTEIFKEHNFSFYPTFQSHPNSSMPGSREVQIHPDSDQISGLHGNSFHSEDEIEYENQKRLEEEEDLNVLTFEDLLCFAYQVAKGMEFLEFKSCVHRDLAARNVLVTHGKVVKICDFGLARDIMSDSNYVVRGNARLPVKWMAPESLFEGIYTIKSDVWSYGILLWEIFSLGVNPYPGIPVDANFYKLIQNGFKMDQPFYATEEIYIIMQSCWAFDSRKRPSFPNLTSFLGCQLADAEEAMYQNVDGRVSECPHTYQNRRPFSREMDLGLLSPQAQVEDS
Description: biochemical. Conditions: read-out: flt3 IC50.

For assay [3], the target named is T3, Flt-4 (baculovirus expressed human Flt-4 kinase domain D725-R1298) (Homo sapiens, UniProt P35916).
T3 construct: human Flt-4 kinase domain D725-R1298; host or cells: baculovirus expression
Description: flt-4 Alphascreen Tyrosine Kinase assay.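 Also: AlphaScreen chemiluminescence read-out of biotinylated poly(Glu,Tyr) 4:1 phosphorylation via streptavidin donor and PY100 anti-phosphotyrosine acceptor beads, ATP near KM, 1 hr kinase reaction, 10-point dose-response.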 The format is biochemical.

Assay [4] has as its target T4, KDR (baculovirus expressed human KDR kinase domain D807-V1356) (Homo sapiens, UniProt P35968).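 Also: Luciferase-coupled chemiluminescent kinase assay, activity read as percent ATP left after 4 h reaction at ambient temperature, ATP near KM, 10-point dose-response in 384-well plates.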
T4 construct: human KDR kinase domain D807-V1356; host or cells: baculovirus expression
Description: biochemical.
Description: (§1) Kinase activity and compound inhibition are investigated using one or more of the three assay formats described below. The ATP concentrations for each assay are selected to be close to the Michaelis-Menten constant (KM) for each individual kinase. Dose-response experiments are performed at 10 different inhibitor concentrations in a 384-well plate format.
KDR biochemical activity was assessed using a Luciferase-Coupled Chemiluminescent Kinase assay (LCCA) format. Kinase activity was measured as the percent ATP remaining following the kinase reaction. Remaining ATP was detected by luciferase-luciferin-coupled chemiluminescence. […] The mixture is incubated at ambient temperature for 4 hours after which 20 uL luciferase-luciferin mix is added and the chemiluminescent signal read using a Wallac Victor^2 reader.

[5] abbreviates: Table 4, inhibition as IC50 class.

From patent publication US8476298B2 (Exelixis, Inc., priority 2003, dated 2013) come the findings set out here.

Like-named read-outs stand apart in the source and are kept apart here.

c-Kit kinase, sequence (P10721 26-976): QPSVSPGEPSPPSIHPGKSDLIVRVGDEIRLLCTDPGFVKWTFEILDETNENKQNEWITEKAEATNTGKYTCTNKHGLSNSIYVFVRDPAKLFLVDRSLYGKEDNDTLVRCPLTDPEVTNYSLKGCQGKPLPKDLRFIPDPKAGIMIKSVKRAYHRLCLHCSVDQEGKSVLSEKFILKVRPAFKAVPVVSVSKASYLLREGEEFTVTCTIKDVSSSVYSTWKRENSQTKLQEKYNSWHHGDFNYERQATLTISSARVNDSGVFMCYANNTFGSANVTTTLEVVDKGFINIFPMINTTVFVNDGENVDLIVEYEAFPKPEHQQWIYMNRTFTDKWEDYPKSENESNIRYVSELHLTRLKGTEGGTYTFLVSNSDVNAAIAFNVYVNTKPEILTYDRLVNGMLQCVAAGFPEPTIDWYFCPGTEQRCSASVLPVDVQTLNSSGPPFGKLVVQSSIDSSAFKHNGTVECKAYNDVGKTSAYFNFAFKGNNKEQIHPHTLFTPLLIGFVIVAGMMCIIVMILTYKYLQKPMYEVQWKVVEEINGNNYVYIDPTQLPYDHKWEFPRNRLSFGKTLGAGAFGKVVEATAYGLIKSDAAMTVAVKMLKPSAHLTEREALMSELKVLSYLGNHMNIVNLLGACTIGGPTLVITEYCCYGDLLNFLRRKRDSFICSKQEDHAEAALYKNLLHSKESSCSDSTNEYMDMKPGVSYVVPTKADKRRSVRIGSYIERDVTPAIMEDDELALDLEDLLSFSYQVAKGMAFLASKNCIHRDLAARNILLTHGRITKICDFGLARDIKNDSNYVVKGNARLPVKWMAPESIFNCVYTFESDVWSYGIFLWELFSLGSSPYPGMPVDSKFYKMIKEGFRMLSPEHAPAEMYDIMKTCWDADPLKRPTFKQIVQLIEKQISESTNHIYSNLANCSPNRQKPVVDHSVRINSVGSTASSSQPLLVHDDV
T3 sequence (P35916 725-1298 isoform P35916-1): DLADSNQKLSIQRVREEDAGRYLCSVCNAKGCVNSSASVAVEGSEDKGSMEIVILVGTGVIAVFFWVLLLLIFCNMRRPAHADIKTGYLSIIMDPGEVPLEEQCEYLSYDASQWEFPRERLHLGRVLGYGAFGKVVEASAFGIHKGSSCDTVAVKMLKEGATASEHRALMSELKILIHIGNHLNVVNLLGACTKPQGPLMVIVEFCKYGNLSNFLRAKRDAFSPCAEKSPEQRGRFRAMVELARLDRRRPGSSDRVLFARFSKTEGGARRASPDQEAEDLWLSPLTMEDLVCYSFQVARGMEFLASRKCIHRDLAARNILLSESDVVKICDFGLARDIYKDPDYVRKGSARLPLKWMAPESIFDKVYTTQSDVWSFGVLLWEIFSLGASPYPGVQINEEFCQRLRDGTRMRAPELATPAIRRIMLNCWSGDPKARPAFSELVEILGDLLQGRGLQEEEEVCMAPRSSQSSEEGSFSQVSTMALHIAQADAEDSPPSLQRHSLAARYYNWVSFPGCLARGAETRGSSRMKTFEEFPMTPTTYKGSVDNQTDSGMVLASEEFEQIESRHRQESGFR
T4 sequence (P35968 807-1356): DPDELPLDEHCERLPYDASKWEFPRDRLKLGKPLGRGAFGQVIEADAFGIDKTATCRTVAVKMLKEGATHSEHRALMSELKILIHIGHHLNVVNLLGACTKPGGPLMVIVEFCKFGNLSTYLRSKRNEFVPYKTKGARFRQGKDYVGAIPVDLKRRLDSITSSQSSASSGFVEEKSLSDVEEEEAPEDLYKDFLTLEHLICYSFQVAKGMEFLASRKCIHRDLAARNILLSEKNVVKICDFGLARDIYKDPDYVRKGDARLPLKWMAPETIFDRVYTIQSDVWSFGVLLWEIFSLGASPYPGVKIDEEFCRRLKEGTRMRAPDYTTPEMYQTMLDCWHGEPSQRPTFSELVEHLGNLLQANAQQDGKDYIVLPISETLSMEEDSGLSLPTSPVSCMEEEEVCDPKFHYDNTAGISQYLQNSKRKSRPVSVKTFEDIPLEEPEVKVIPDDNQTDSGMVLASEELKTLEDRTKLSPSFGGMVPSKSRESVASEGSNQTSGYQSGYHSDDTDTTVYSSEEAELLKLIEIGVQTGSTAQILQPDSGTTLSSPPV
T1 sequence (P08581 1011-1343 limits assumed): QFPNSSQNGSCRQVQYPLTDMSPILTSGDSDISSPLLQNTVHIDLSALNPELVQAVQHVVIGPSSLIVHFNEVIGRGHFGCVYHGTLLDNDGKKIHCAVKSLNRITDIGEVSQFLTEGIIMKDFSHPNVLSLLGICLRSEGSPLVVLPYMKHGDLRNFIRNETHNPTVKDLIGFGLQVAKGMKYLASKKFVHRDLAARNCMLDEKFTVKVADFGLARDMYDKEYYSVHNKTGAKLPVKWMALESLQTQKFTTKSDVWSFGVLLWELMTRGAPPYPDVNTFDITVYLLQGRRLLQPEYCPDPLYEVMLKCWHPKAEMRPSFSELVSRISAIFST
Description for c-Kit kinase: as §1
AlphaScreen™ (Perkin Elmer) technology is a proximity assay employing microparticles. Singlet oxygen derived from a donor bead following laser excitation results in chemiluminescence when in proximity (100 Å) to an acceptor bead due to biomolecular interactions.
c-Kit biochemical activity was assessed using AlphaScreen™ (Perkin Elmer) technology, described above. Test compounds, ATP, biotinylated poly(Glu, Tyr) and c-Kit kinase were combined in a volume of 20 μL in a 384-well white, medium binding microtiter plate (Greiner). Reaction mixtures were incubated for 1 hr at ambient temperature. […] After 16 hr incubation at ambient temperature plates were read using an AlphaQuest reader (Perkin Elmer).

As for `COc1cc2nccc(Oc3ccc(NC(=O)CC(=O)Nc4ccc(F)cc4)cc3)c2cc1OC` [Example 288, N-(4-{[6,7-bis(methyloxy)quinolin-4-yl]oxy}phenyl)-N′-(4-fluorophenyl)propanediamide], the concentration for half-maximal inhibition (IC50) (in assay [1]; against c-Kit kinase; in assay [2]; in assay [3] (read-out: flt4 IC50); in assay [4]) was under 50 nM each time.

In the case of `COc1ccc(CCN(C)C(=O)C(=O)Nc2ccc(Oc3ccnc4cc(OCC5CCNCC5)c(OC)cc34)c(F)c2)cc1OC` [Example 279, N-{2-[3,4-bis(methyloxy)phenyl]ethyl}-N′-[3-fluoro-4-({6-(methyloxy)-7-[(piperidin-4-ylmethyl)oxy]quinolin-4-yl}oxy)phenyl]-N-methylethanediamide], the half-inhibitory concentration (IC50) was 50 to 500 nM in assay [1] (setting [5]); 50 to 500 nM at c-Kit kinase (setting [5]); under 50 nM in assay [2] (setting [5]); 50 to 500 nM in assay [3] (Table 4, inhibition as IC50 class, read-out: flt4 IC50); 50 to 500 nM in assay [4] (setting [5]).

Turning to `COc1cc2nccc(Oc3ccc(NC(=O)C(=O)N[C@@H]4CCc5ccccc5C4)cc3F)c2cc1OC` [Entry 71], the IC50 was 50 to 500 nM in assay [1], 50 to 500 nM against c-Kit kinase, 500 to 5000 nM in assay [3] (read-out: flt4 IC50) and over 5000 nM in assay [4].

`COc1cc2nccc(Oc3ccc(NC(=O)C4(C(=O)Nc5ccc(F)cc5)CC4)cc3)c2cc1OC` [Example 289, N-(4-{[6,7-bis(methyloxy)quinolin-4-yl]oxy}phenyl)-N′-(4-fluorophenyl)cyclopropane-1,1-dicarboxamide] had a half-inhibitory concentration (IC50) in assay [3] of 5.58 nM.

In the case of `COc1cc2c(Oc3ccc(NC(=O)C(=O)NCCc4ccc(Cl)c(Cl)c4)cc3F)ccnc2cc1OCC1CCNCC1` [Example 223, N-[2-(3,4-dichlorophenyl)ethyl]-N′-[3-fluoro-4-({6-(methyloxy)-7-[(piperidin-4-ylmethyl)oxy]quinolin-4-yl}oxy)phenyl]ethanediamide], the IC50 (in assay [1] (setting [5]); at c-Kit kinase (setting [5]); in assay [2] (setting [5]); in assay [4] (setting [5])) was under 50 nM throughout.

Turning to `COc1cc2c(Oc3ccc(NC(=O)C(=O)NCC(O)c4ccccc4)cc3F)ccnc2cc1OCC1CCNCC1` (centres unmarked) [Example 251, N-[3-fluoro-4-({6-(methyloxy)-7-[(piperidin-4-ylmethyl)oxy]quinolin-4-yl}oxy)phenyl]-N′-(2-hydroxy-2-phenylethyl)ethanediamide], the half-maximal inhibitory concentration (IC50) (in assay [1] (setting [5]); at c-Kit kinase (setting [5]); in assay [2] (setting [5]); in assay [4] (setting [5])) was 50 to 500 nM each time.

Regarding `COc1cc2c(Oc3ccc(NC(=O)C(=O)NCc4cnccn4)cc3F)ccnc2cc1OCC1CCNCC1` [Example 273, N-[3-fluoro-4-({6-(methyloxy)-7-[(piperidin-4-ylmethyl)oxy]quinolin-4-yl}oxy)phenyl]-N′-(pyrazin-2-ylmethyl)ethanediamide], the IC50 in assay [1] (setting [5]) was 50 to 500 nM; at c-Kit kinase (setting [5]), 500 to 5000 nM; in assay [2] (setting [5]) it was 50 to 500 nM; in assay [4] (setting [5]), 500 to 5000 nM.

In the case of `CC[C@H](NC(=O)C(=O)Nc1ccc(Oc2ccnc3cc(OCC4CCNCC4)c(OC)cc23)c(F)c1)c1ccccc1` [Example 255, N-[3-fluoro-4-({6-(methyloxy)-7-[(piperidin-4-ylmethyl)oxy]quinolin-4-yl}oxy)phenyl]-N′-[(1S)-1-phenylpropyl]ethanediamide], the concentration for half-maximal inhibition (IC50) in assay [1] (setting [5]) was under 50 nM; against c-Kit kinase (setting [5]), 500 to 5000 nM; in assay [2] (setting [5]), 50 to 500 nM; in assay [4] (setting [5]), 50 to 500 nM.

Take `COc1ccc(CNC(=O)C(=O)Nc2ccc(Oc3ccnc4cc(OCC5CCN(C)CC5)c(OC)cc34)c(F)c2)cc1` [Example 247, N-{3-fluoro-4-[(6-(methyloxy)-7-{[(1-methylpiperidin-4-yl)methyl]oxy}quinolin-4-yl)oxy]phenyl}-N′-{[4-(methyloxy)phenyl]methyl}ethanediamide]: the IC50 in assay [1] (setting [5]) was under 50 nM; against c-Kit kinase (setting [5]), under 50 nM; in assay [2] (setting [5]), 50 to 500 nM; in assay [4] (setting [5]), 50 to 500 nM.

For the molecule `COc1cc2c(Oc3ccc(NC(=O)C4(C(=O)Nc5ccc(F)cc5)CC4)cc3)ccnc2cc1OCCCN1CCOCC1` [Example 335, N-(4-fluorophenyl)-N′-[4-({6-(methyloxy)-7-[(3-morpholin-4-ylpropyl)oxy]quinolin-4-yl}oxy)phenyl]cyclopropane-1,1-dicarboxamide], the concentration for half-maximal inhibition (IC50) (on c-Kit kinase; in assay [2]; in assay [3] (read-out: flt4 IC50); in assay [4]) was under 50 nM throughout.

With `COc1cc2c(Oc3ccc(NC(=S)NC(=O)Cc4ccccc4)cc3F)ncnc2cc1OCC1C[C@H]2CNC[C@H]2C1` (some centres unmarked) [Entry 1], the IC50 in assay [3] (read-out: flt4 IC50) and in assay [4] was under 50 nM throughout.

As for `COc1cc2nccc(Oc3ccc(NC(=O)C(=O)NCCOc4ccccc4)cc3F)c2cc1OC` [Entry 73], the concentration for half-maximal inhibition (IC50) in assay [1] was in the range of 50 to 500 nM; against c-Kit kinase it was 50 to 500 nM; in assay [3] (read-out: flt4 IC50), 500 to 5000 nM; in assay [4] it was 50 to 500 nM.

The molecule `COc1cc2c(Oc3ccc(NC(=O)C(=O)N[C@@H](C)c4ccccc4)cc3F)ccnc2cc1OCC1CCNCC1` [Example 184, N-{3-Fluoro-4-[6-methoxy-7-(piperidin-4-ylmethoxy)-quinolin-4-yloxy]-phenyl}-N′-(1S-phenyl-ethyl)-oxalamide] had an IC50 on c-Kit kinase (setting [5]) of under 50 nM.

Take `COc1cc2nccc(Oc3ncc(NC(=O)C4(C(=O)Nc5ccccc5)CC4)cc3Cl)c2cc1OC` [Example 305, N-(6-{[6,7-bis(methyloxy)quinolin-4-yl]oxy}-5-chloropyridin-3-yl)-N′-phenylcyclopropane-1,1-dicarboxamide]: the IC50 is under 50 nM in assay [1], 50 to 500 nM at c-Kit kinase, under 50 nM in assay [2] and 50 to 500 nM in assay [4].

On c-Kit kinase (setting [5]), `COc1cc2c(Oc3ccc(NC(=O)C(=O)NC4CCc5ccccc54)cc3F)ccnc2cc1OCC1CCNCC1` (centres unmarked) [Example 177, N-{3-Fluoro-4-[6-methoxy-7-(piperidin-4-ylmethoxy)-quinolin-4-yloxy]-phenyl}-N′-indan-1-yl-oxalamide] had a concentration for half-maximal inhibition (IC50) of under 50 nM.

Consider `COc1cc2nccc(Oc3ccc(NC(=O)C(=O)NCC(c4ccccc4)N(C)C)cc3F)c2cc1OC` (centres unmarked) [Example 235, N-(4-{[6,7-bis(methyloxy)quinolin-4-yl]oxy}-3-fluorophenyl)-N′-[2-(dimethylamino)-2-phenylethyl]ethanediamide], for which the IC50 in assay [1] (setting [5]) was 50 to 500 nM; on c-Kit kinase (setting [5]) it was 50 to 500 nM; in assay [2] (setting [5]) it was under 50 nM; in assay [4] (setting [5]) it was 50 to 500 nM.

`COc1cc2c(Oc3ccc(NC(=O)C(=O)NCCc4cccc(Cl)c4)cc3F)ccnc2cc1OCC1CCNCC1` [Example 149, N-[2-(3-Chloro-phenyl)-ethyl]-N′-{3-fluoro-4-[6-methoxy-7-{piperidin-4-ylmethoxy)-quinolin-4-yloxy]-phenyl}-oxalamide]: at c-Kit kinase, the half-inhibitory concentration (IC50) was under 50 nM.

In the case of `COc1cc2nccc(Oc3ccc(NC(=O)C4(C(=O)Nc5ccc(F)cc5)CC4)cc3F)c2cc1OC` [Example 319, N-(4-{[6,7-bis(methyloxy)quinolin-4-yl]oxy}-3-fluorophenyl)-N′-(4-fluorophenyl)cyclopropane-1,1-dicarboxamide], the IC50 (at c-Kit kinase; in assay [2]; in assay [3] (read-out: flt4 IC50)) was under 50 nM each time.

On to `CCOc1ccc(CCNC(=O)C(=O)Nc2ccc(Oc3ccnc4cc(OCC5CCNCC5)c(OC)cc34)c(F)c2)cc1` [Example 167, N-[2-(4-Ethoxy-phenyl)-ethyl]-N′-{3-fluoro-4-[6-methoxy-7-(piperidin-4-ylmethoxy)-quinolin-4-yloxy]-phenyl}-oxalamide], for which, at c-Kit kinase (setting [5]), the IC50 lay within 50 to 500 nM.

Regarding `COc1cc2c(Oc3ccc(NC(=O)C(=O)NCc4cc(C(F)(F)F)cc(C(F)(F)F)c4)cc3F)ccnc2cc1OCC1CCNCC1` [Example 272, N-{[3,5-bis(trifluoromethyl)phenyl]methyl}-N′-[3-fluoro-4-({6-(methyloxy)-7-[(piperidin-4-ylmethyl)oxy]quinolin-4-yl}oxy)phenyl]ethanediamide], the half-inhibitory concentration (IC50) is under 50 nM in assay [1] (setting [5]), 500 to 5000 nM against c-Kit kinase (setting [5]), 50 to 500 nM in assay [2] (setting [5]) and under 50 nM in assay [4] (setting [5]).

As to `COc1cc2nccc(Oc3ccc(NC(=O)C(=O)NCCC4CCCN4C)cc3F)c2cc1OC` (centres unmarked) [Entry 72], the IC50 (in assay [1]; against c-Kit kinase; in assay [2]) was 500 to 5000 nM in each case.

For `COc1cc2c(Oc3ccc(NC(=S)NC(=O)Cc4ccccc4)cc3F)ncnc2cc1OCC1C[C@@H]2CN(C)C[C@@H]2C1` (some centres unmarked) [Entry 2], the IC50 (in assay [1]; at c-Kit kinase; in assay [3] (read-out: flt4 IC50); in assay [4]) was under 50 nM throughout.
